# Structures can show the parent of a compound that is named as a salt.
# What was measured:
# [1] = reported in WO2010/083414; cited from earlier work
# [2] = Dynamic vapour sorption (DVS), water absorption; format: physicochemical; conditions: between 20% and 70% RH
# Method: Approximately 10-20 mg of sample was placed into a vapour sorption balance pan and loaded into a DVS-1 dynamic vapour sorption balance by Surface Measurement Systems. The sample was subjected to a ramping profile from 20-90% relative humidity (RH) at 10% increments, maintaining the sample at each step until a stable weight had been achieved (99.5% step completion). After completion of the sorption cycle, the sample was dried using the same procedure, but all the way down to 0% RH and finally taken back to the starting point of 20% RH. The weight change during the sorption/desorption cycles were plotted, allowing for the hygroscopic nature of the sample to be determined.
# [3] = Aqueous solubility measurement; format: physicochemical; conditions: thermodynamic from solid; deionized water, shaking ca. 24 h, ambient temperature (ca. 22° C.)
# Method: Each salt was individually slurried in deionized water and subjected to shaking for ca. 24 h at ambient temperature (ca. 22° C.). The resulting saturated solutions were filtered and analyzed by HPLC analysis. XRPD analysis was carried out on any solid retained after the solubility experiment.
# [4] = Karl Fischer coulometric titration (water content); format: physicochemical
# Method: Ca. 10-20 mg of solid material was accurately weighed into a container and the weight noted. The solid was then manually introduced into the titration cell of a Mettler Toledo C30 Compact Titrator. The titration was initiated once the sample had fully dissolved in the cell. The vial was back-weighed after the addition of the solid and the weight of the added solid entered into the instrument. The water content was calculated automatically by the instrument as a percentage and the data printed.
# [5] = humidity (75%) and high temperature (40° C.); reported in WO2010/083414; cited from earlier work
structure (smiles),measurement,setting,value
COc1cc2nccc(Oc3ccc(NC(=O)C4(C(=O)Nc5ccc(F)cc5)CC4)cc3)c2cc1OC [(L)-malate salt],Hygroscopicity,[1],non-hygroscopic
"COc1cc2nccc(Oc3ccc(NC(=O)C4(C(=O)Nc5ccc(F)cc5)CC4)cc3)c2cc1OC.Cl [Cabozantinib hydrochloride Form A-1, N-{4-[(6,7-dimethoxy-4-quinolinyl)oxy]phenyl}-N′-(4-fluorophenyl)-1,1-cyclopropanedicarboxamide hydrochloride]",Water absorption (DVS),[2]; DVS,0.07 weight-%
same,Hygroscopicity (DVS),[2],non hygroscopic
same,solubility at 24 h,[3],210 µg/mL
"COc1cc2nccc(Oc3ccc(NC(=O)C4(C(=O)Nc5ccc(F)cc5)CC4)cc3)c2cc1OC.O=P(O)(O)O [Cabozantinib phosphate Form A, N-{4-[(6,7-dimethoxy-4-quinolinyl)oxy]phenyl}-N′-(4-fluorophenyl)-1,1-cyclopropanedicarboxamide phosphate]",Water absorption,[2]; DVS,1%
same,solubility at 24 h,[3],90 µg/mL
same,KF analysis water content,[4],0.5 weight-%
COc1cc2nccc(Oc3ccc(NC(=O)C4(C(=O)Nc5ccc(F)cc5)CC4)cc3)c2cc1OC [cabozantinib hydrochloride salt],Physical stability (hydrate formation / phase change),[5],Possible hydrate formation and a phase change

# Reference: patent US10053427B2, “Crystalline forms of cabozantinib phosphate and cabozantinib hydrochloride” (priority 2015, dated 2018)
